Test results published in patent US7947726B2, “Non-steroidal ligands for the glucocorticoid receptor, and compositions thereof” (The Regents of the University of California, priority 2002, dated 2011).
Read-outs that look alike come from different tables or passages of the source.

Assays:
MR = biological target: T1, MR (Homo sapiens, UniProt P08235); experiment: MR activation (max fold activation); format: cell-based; settings: Table 4
T1 sequence (P08235 1-984): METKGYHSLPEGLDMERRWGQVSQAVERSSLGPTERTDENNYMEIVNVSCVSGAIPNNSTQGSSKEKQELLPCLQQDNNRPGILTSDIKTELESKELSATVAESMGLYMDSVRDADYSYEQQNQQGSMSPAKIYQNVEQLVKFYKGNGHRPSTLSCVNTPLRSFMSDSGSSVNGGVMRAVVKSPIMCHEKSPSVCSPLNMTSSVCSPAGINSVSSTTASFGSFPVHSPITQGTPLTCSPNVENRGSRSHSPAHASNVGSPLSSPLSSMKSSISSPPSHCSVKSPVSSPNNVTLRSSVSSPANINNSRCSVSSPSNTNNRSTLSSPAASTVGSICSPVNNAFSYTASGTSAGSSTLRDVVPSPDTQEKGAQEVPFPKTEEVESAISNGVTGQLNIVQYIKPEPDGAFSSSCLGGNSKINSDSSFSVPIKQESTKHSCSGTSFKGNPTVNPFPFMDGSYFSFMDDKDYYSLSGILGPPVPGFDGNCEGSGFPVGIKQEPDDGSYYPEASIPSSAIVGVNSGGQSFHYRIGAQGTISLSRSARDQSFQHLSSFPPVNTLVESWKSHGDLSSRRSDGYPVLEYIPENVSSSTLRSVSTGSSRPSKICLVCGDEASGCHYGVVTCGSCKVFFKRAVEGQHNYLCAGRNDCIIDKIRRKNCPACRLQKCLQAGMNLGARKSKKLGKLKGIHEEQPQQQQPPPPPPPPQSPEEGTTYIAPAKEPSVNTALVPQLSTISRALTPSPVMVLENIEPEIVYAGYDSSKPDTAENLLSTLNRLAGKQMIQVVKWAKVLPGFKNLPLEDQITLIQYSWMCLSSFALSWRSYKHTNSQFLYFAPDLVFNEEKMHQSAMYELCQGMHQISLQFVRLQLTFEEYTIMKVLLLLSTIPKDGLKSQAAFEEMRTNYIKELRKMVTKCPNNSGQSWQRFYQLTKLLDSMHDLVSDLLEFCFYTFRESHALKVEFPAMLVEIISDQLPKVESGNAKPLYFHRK

GR [1] = biological target: T2, GR (Homo sapiens, UniProt P04150); experiment: GRE (TAT3-Luc) activation luciferase assay in CV-1 cells transfected with GR; format: cell-based
T2 construct: expressed in transfected cells; host or cells: CV-1 cells, transient transfection (plasmid a gift of Keith Yamamoto, UCSF)
T2 sequence (P04150 1-777): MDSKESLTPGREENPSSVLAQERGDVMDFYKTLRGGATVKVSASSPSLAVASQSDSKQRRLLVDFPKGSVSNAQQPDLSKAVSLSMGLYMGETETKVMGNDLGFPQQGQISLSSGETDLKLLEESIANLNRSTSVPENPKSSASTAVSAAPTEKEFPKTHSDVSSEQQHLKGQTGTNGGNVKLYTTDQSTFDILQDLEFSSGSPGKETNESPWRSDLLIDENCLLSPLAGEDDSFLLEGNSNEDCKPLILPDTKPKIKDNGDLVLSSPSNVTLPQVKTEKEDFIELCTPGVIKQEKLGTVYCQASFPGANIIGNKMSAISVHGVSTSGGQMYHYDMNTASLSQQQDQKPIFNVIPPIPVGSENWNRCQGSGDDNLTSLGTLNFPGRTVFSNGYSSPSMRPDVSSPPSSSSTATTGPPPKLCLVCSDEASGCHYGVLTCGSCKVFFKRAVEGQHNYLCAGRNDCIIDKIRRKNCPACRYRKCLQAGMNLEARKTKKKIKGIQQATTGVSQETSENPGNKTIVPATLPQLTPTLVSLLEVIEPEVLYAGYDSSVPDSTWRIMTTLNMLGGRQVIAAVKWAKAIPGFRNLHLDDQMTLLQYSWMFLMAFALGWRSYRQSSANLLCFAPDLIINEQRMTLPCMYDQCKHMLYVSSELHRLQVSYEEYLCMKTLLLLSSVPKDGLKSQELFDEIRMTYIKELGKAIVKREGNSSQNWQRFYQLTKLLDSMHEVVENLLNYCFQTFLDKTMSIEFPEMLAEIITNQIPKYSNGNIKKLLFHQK
Description: Cells were plated into tissue culture treated, 96 well flat bottom plates (25,000 cells/well), and incubated for 12 h at 37° C. Cells were then transfected using the Lipofectamine PLUS transfection reagent (Gibco BRL). DNA-lipid complexes of 5 ng GR, 50 ng TAT3-Luc, 7.5 ng β-galactosidase, 1 μL-well PLUS reagent and 0.67 μL-well lipofectamine in 50 μL/well serum free media were added to cells and incubated for 4 h at 37° C. Complexes were removed and hormones diluted in 5% charcoal-stripped FBS were added to the cells, which were then incubated for 24 hours at 37° C. Media was removed and the cells were washed with 100 μL Ca^+2, Mg^+2 free phosphate buffered saline (PBS). Lysis was achieved by adding 50 μL of Passive Lysis Buffer (Promega Corp, Madison, Wis.) and shaking the plate for 15 min. 15 μL of this lysate was then used to assay β-galactosidase activity (β-galactosidase enzyme assay system, Promega Corp., recommended procedures followed). The Luciferase Assay System (Promega Corp.) was used to assay luciferase activity. 100 μL of luciferase assay reagent was added rapidly to the plate and luminescence was measured for 10 ms/well on an Analyst AD Detection System (LJL Biosystems, Sunnyvale, Calif.).

[2] = biological target: T3, glucocorticoid receptor (GR) (Homo sapiens, UniProt P04150); experiment: Glucocorticoid Receptor Competitor Assay Kit (Panvera) ligand binding; settings: for GR binding RBA (dex = 100): Table 3; for GR binding RBA (dex = 100) / GR Binding RBA (dexamethasone = 100): relative binding affinity, dexamethasone = 100; for GR Binding RBA (dexamethasone = 100): Table 1
T3 construct: purchased Panvera Corp, Madison, Wis
T3 sequence (P04150 1-777): T2 sequence (P04150 1-777)
Text: The Glucocorticoid Receptor Competitor Assay Kit (Panvera Corp, Madison, Wis.) was used for ligand binding studies. The recommended room temperature protocol was followed for all assayed ligands.

GR [3] = biological target: T4, GR (Rattus norvegicus, UniProt P06536); experiment: AP-1 repression luciferase assay in U2OS cells stably transfected with rat GR; format: cell-based; settings: Table 5, TPA-stimulated U2OS cells; for EC50: read-out: Repression AP-1 pot (EC50); for Emax: U2OS, 12 h, read-out: Repression AP-1 % max repression
T4 construct: expressed in transfected cells; gift of Keith Yamamoto
T4 sequence (P06536 1-795): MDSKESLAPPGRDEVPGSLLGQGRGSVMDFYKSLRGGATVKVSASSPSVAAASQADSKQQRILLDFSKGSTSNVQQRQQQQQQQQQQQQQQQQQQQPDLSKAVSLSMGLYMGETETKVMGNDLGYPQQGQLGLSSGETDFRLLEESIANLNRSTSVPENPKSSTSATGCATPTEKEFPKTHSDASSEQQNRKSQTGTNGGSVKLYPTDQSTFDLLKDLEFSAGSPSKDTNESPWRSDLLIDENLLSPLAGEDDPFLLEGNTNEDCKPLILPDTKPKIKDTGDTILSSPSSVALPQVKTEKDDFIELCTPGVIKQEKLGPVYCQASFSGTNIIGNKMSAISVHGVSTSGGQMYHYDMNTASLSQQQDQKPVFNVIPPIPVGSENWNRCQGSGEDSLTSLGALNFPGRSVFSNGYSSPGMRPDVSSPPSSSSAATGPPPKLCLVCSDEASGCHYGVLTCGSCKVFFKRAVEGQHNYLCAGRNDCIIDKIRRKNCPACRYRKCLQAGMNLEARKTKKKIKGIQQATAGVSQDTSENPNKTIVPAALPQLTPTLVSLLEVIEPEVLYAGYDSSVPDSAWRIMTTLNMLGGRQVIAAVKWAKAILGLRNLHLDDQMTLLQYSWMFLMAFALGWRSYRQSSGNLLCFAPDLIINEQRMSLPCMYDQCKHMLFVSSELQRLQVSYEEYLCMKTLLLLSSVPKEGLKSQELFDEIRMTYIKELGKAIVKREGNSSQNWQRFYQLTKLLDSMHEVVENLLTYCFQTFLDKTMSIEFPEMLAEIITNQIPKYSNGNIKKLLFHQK
Description: For API repression assays, U2OS cells stably transfected with rat GR were grown in similar media as for CV-1 cells with the exception of the FBS concentration, which was 10% and the only antibiotic was […]. Cells were plated and transfected in a similar fashion, except for plasmids, which in this case were 50 ng/well AP1-Luc and 10 ng/well β-galactosidase. Post-transfection, cells were incubated with either 50 ng/mL TPA (Phorbol 12-myristate 13-acetate), or 50 ng/mL TPA and various hormone dilutions in 10% charcoal treated FBS media. The cells were incubated for 12 h, and the lysis, β-galactosidase assay, and luciferase assay were performed as previously described.

Coll A = Coll A repression; format: cell-based; settings: for Emax: read-out: Repression Coll A % max repression; for EC50: read-out: Repression Coll A pot (EC50)
[4] = Table 4, read-out: GR pot (EC50)
[5] = read-out: IC50 in a GR binding assay
[6] = Table 2, read-out: GR Binding (IC50)

C[C@]12CCC(=O)C=C1CC[C@@H]1[C@@H]2[C@@H](O)C[C@]2(C=O)[C@@H](C(=O)CO)CC[C@@H]12 [Aldosterone, reference compound] was tested, and the “MR max fold activation” value (MR) was 6.1 ± 1.5, the “GRE activation max fold activation” value (GR [1]; Table 4, fold) was 41 and the EC50 (GR [1]; [4]) was 765 nM.
In the case of CC12Cc3cnn(-c4ccc(F)cc4)c3C=C1CCCC2=O (centres unmarked) [Compound 205, 1-(4-Fluoro-phenyl)-4a-methyl-1,4,4a,6,7,8-hexahydro-benzo[f]indazol-5-one], the IC50 [2, 5] is reported as 436 nM.
With COc1cc(C(O)C2CCCC3=Cc4c(cnn4-c4ccc(F)cc4)CC32C)cc(OC)c1OC (centres unmarked) [Compound 223, [1-(4-Fluoro-phenyl)-4a-methyl-4,4a,5,6,7,8-hexahydro-1H-benzo[f]indazol-5-yl]-(3,4,5-trimethoxyphenyl)-methanol] the EC50 (GR [3]) was 6.7 nM, the Emax (GR [3]) was 74% and the “GRE activation max fold activation” value (GR [1]; Table 4, fold) was 32 ± 2. For the same compound, the EC50 (GR [1]; [4]) was 143 ± 27 nM and the “GR binding RBA (dex = 100)” value [2] was 47.
With Cc1cc(O)cc(C)c1C(=O)C1CCCC2=Cc3c(cnn3-c3ccc(F)cc3)CC21C (centres unmarked) [Compound 228, 4-{[1-(4-Fluoro-phenyl)-4a-methyl-4,4a,5,6,7,8-hexahydro-1H-benzo[f]indazol-5-yl]-keto-methyl}-3,5-dimethyl-phenol] the “GR Binding RBA (dexamethasone = 100)” value [2] was 16.
Cc1cc(O)cc(C)c1CC1CCCC2=Cc3c(cnn3-c3ccc(F)cc3)CC21C (centres unmarked) [Compound 230, 4-{[1-(4-Fluoro-phenyl)-4a-methyl-4,4a,5,6,7,8-hexahydro-1H-benzo[f]indazol-5-yl]-methyl}-3,5-dimethyl-phenol] was tested, and the “GR Binding RBA (dexamethasone = 100)” value [2] was 22.
With COCOC(c1c(C)cc(O)cc1C)C1CCCC2=Cc3c(cnn3-c3ccc(F)cc3)CC21C (centres unmarked) [Compound 232, 4-{[1-(4-Fluoro-phenyl)-4a-methyl-4,4a,5,6,7,8-hexahydro-1H-benzo[f]indazol-5-yl]-methoxymethoxy-methyl}-3,5-dimethyl-phenol] the EC50 (GR [1]; Table 1, read-out: GR pot(EC50)) was 82 nM and the “GR Binding RBA (dexamethasone = 100)” value [2] was 26.
In the case of Cc1cc(C(O)C2CCCC3=Cc4c(cnn4-c4ccc(F)cc4)CC32C)ccc1O (centres unmarked) [Compound 235, 4-{[1-(4-Fluoro-phenyl)-4a-methyl-4,4a,5,6,7,8-hexahydro-1H-benzo[f]indazol-5-yl]-hydroxy-methyl}-2-methyl-phenol], the EC50 (GR [3]) is reported as 16.6 nM, the Emax (GR [3]) is reported as 74% and the “GRE activation max fold activation” value (GR [1]; Table 4, fold) is reported as 76. The EC50 (GR [1]; [4]) was 81 nM and the “GR binding RBA (dex = 100)” value [2] was 110.
CC12Cc3cnn(-c4ccc(F)cc4)c3C=C1CCCC2C(O)c1cc2ccccc2c2ccccc12 (centres unmarked) [Compound 259, [1-(4-Fluoro-phenyl)-4a-methyl-4,4a,5,6,7,8-hexahydro-1H-benzo[f]indazol-5-yl]-phenanthren-9-yl-methanol] gave an Emax (Coll A; Table 5) of 73%, an EC50 (Coll A; Table 5) of 783 nM and an EC50 (GR [1]; [4]) of over 5000 nM. The “GR binding RBA (dex = 100)” value [2] was 72.
CC12Cc3cnn(-c4cccc(C#Cc5ccccc5)c4)c3C=C1CCCC2=O (centres unmarked) [Compound 261, 4a-Methyl-1-(3-phenylethynyl-phenyl)-1,4,4a,6,7,8-hexahydro-benzo[f]indazol-5-one] showed an IC50 [2, 5] of 174 nM.
With CC12Cc3cnn(-c4ccc(F)cc4)c3C=C1CCc1c2[nH]c2ccc(Br)cc12 (centres unmarked) [Compound 263, 3-(4-fluoro-phenyl)-8-bromo-11b-methyl-5,6,12-trihydro-indazolo[5,6-a]carbazole] the IC50 [2, 6] was 708 nM.
In the case of COc1ccc2[nH]c3c(c2c1)CCC1=Cc2c(cnn2-c2ccc(F)cc2)CC13C (centres unmarked) [Compound 265, 3-(4-fluoro-phenyl)-8-methoxy-11b-methyl-5,6,12-trihydro-indazolo[5,6-a]carbazole], the IC50 [2, 6] is reported as 239 nM.
In the case of CC12Cc3cnn(-c4ccc(F)cc4)c3C=C1CCc1c2[nH]c2ccc(F)cc12 (centres unmarked) [Compound 267, 3-(4-fluoro-phenyl)-8-fluoro-11b-methyl-5,6,12-trihydro-indazolo[5,6-a]carbazole], the Emax (Coll A; Table 2) is reported as 75%, the EC50 (Coll A; Table 2) is reported as 100 nM and the “GRE Activation Max fold activation” value (GR [1]; Table 2, fold) is reported as 18. It also gave an IC50 [2, 6] of 130 nM.
Work on CC12Cc3cnn(-c4ccc(F)cc4)c3C=C1CCC(=Cc1c3ccccc3cc3ccccc13)C2=O (centres unmarked) [Compound 269, 6-Anthracen-9-ylmethylene-1-(4-fluoro-phenyl)-4a-methyl-1,4,4a,6,7,8-hexahydro-benzo[f]indazol-5-one] yielded an EC50 (Coll A; Table 2) of over 5000 nM, an EC50 (GR [1]; Table 2, read-out: GRE Activation GR pot (EC50)) of over 5000 nM and an IC50 [2, 6] of 43 nM.
